US20170197977A9, “COMPOSITIONS AND METHODS FOR TREATING NEURODEGENERATIVE DISEASE” (COGNITION THERAPEUTICS, INC., priority 2011, published 2017)
Entries after “also recorded” stand apart in the source; their conditions may differ.

Tests used:
[1] = tested on: SKOV-3 human ovarian cancer cell line; assay: MTS tumor cell viability assay; assay type: cell-based; conditions: agonist/antagonist call relative to siramesine
Procedure: The cytotoxicity of compounds shown below was determined using the CellTiter96 Aqueous One Solution Assay (Promega, Madison, Wis.). […] The plate was read at 490 nm in a Victor3 plate reader (PerkinElmer Life and Analytical Sciences, Shelton, Conn.). The EC^50 value, defined as the concentration of the sigma ligand required to inhibit cell viability by 50% relative to untreated cells, was determined from the dose response curve for each cell line.

sigma-1 receptor = target: T1, sigma-1 receptor (Cavia porcellus, UniProt Q60492); assay: Competitive radioligand binding assay 2, guinea pig brain membrane homogenates; conditions: read-out: Sigma-1 (Ki, nM) ±mean SEM
T1 construct: from tissue; host or cells: guinea pig brain membrane homogenates
T1 sequence (Q60492 whole entry): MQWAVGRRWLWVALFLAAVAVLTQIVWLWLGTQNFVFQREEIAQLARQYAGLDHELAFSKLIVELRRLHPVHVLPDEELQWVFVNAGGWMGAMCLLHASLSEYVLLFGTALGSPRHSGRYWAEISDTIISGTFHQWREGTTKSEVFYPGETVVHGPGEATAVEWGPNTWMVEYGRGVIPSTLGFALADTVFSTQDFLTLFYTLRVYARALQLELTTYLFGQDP
Procedure: The affinity of candidate sigma-2 ligand compounds at sigma-1 and sigma-2 receptors was also determined by displacement of different known labeled sigma-2 or sigma-1 ligands. Filtration assays were conducted according the previously published procedure (Xu, et al., 2005). Test compounds were dissolved in N,N-Dimethylformamide (DMF), dimethyl sulfoxide (DMSO) or ethanol and then diluted in 50 mM Tris-HCl pH 7.4 buffer containing 150 mM NaCl and 100 mM EDTA. Membrane homogenates were made from guinea pig brain for sigma-1 binding assay and rat liver for sigma-2 binding assay. Membrane homogenates were diluted with 50 mM Tris-HCl buffer, pH 8.0 and incubated at 25° C. in a total volume of 150 uL in 96 well plates with the radioligand and test compounds with concentrations ranging from 0.1 nM to 10 uM. […] A Wallac 1450 MicroBeta liquid scintillation counter (Perkin Elmer, Boston, Mass.) was used to quantitate the bound radioactivity.
The binding affinity, Ki values was calculated using the method of Cheng and Prusoff. […]

[2] = tested on: hAPP (Swedish/London) transgenic mice; conditions: 0.5 mg/kg/day subcutaneous minipump, one month, 8 month old female mice
Procedure: In this study, rather than preventing deficits from occurring, deficits that were already established were treated. These studies were performed pursuant to a service contract by scientists who were blind to the experimental conditions. The compound was infused at 0.5 and 0.1 mg/kg/day for one month in 8 month old female mice via subcutaneous minipump and cognitive performance was tested in the Morris water maze, a test of hippocampal-based spatial learning and memory.
The swim speed was analyzed as part of the Morris measurements to determine if there were any motor or motivational deficits. Our vehicle is a 5% DMSO/5% Solutol, 90% saline mixture. The transgenic animals treated with a low dose (0.1 mg/kg/day) and a high dose (0.5 mg/kg/day) of compound. The average of three daily trials on each of four consecutive days were determined.
Escape latency measurements from the Morris water test were taken.
During the final four days of treatment, mice were tested to find the hidden platform in three trials/day. A computerized tracking system automatically quantified escape latency, or swim length.

[3] = tested on: Abeta oligomer-induced memory deficits in wt C57BL/6 mice; assay: Contextual fear conditioning after intrahippocampal Abeta oligomer injection; assay type: in vivo, mouse
Procedure: Abeta oligomers (single 200 nanoMolar intrahippocampal injection) produced significant deficits in memory formation in 3-4 month old male wt C57BL/6 mice (N=16) compared to vehicle (N=18).
Several pharmaceutical companies use this same model in their discovery efforts. Contextual fear conditioning is an accepted model of associative memory formation which correlates to human cognitive function and specifically the creation of new (Delgado '06). Abeta oligomers are injected into the hippocampus of wild-type animals immediately before conditioning training and memory is assessed via freezing behavior after 24 hours. Details are provided in Example 9. […] This model system was chosen because intrahippocampal administration of oligomers allows rapid comparative assessment of compound activity and off-target toxicity. The results are shown graphically in FIG. 4.
Compound II was tested in an animal model of a memory-dependent behavioral task known as fear conditioning. The study protocol was designed based on published protocols (See e.g. Puzzo D, Privitera L, Leznik E, Fà M, Staniszewski A, Palmeri A, Arancio O. Picomolar amyloid-beta positively modulates synaptic plasticity and memory in hippocampus. J. Neurosci. 2008 Dec. 31; 28(53):14537-45.). The formation of contextual memories is dependent upon the integrity of medial temporal lobe structures such as the hippocampus. […]

neuronal cultures = assay: Nuclear intensity / morphology in neuronal cultures; conditions: 24 hours

Structure (SMILES): COc1cc(CCC(C)NCc2ccc(C(F)(F)F)cc2)ccc1O (stereo not drawn) [Compound II]
- Action [1]: Antagonist
- Ki (sigma-1 receptor): 108 ± 19.9 nM
- Cognitive performance, escape latency [2]: capable of improving cognitive performance
- Memory performance when dosed alone ([3]; no Abeta oligomer): no effect of compounds alone
- Abeta oligomer-induced memory deficits (freezing behavior 24 hours post-training) ([3]; single intrahippocampal injection one hour prior to oligomers (2 microMolar, b68; 2 pmol dose)): completely blocked oligomer-mediated memory deficits; also recorded: eliminated memory deficits
- Nuclear morphology / nuclear intensity compared to vehicle (neuronal cultures): did not decrease nuclear intensity
